Measured values as given in PMC9029856, “Impact of Different [Tc(N)PNP]-Scaffolds on the Biological Properties of the Small cRGDfK Peptide: Synthesis, In Vitro and In Vivo Evaluations” (Molecules, 2022).

What was measured:
[1] = test system: human melanoma M21 (αvβ3 positive) cells; assay: Cell uptake and internalization in M21 cells; type: cell-based; details: for cell uptake (sum of surface bound and internalized radioactivity), blocked: M21 blocked by an excess of cold cRGDfK; for cell uptake (sum of surface bound and internalized radioactivity), blocked / cell uptake (sum of surface bound and internalized radioactivity): 37 °C, 90 min; for cell uptake (sum of surface bound and internalized radioactivity): M21 unblocked; for specific/nonspecific ratio, internalized radioactivity only: melanoma cell lines
Procedure: (§1) Cell uptake and internalization studies were performed on receptor-positive human melanoma M21 (expressing high levels of αvβ3 integrin and moderate level of integrin αvβ5), human breast cancer MCF7 (exclusively expressing αvβ5), and receptor-negative human melanoma M21L cell lines. The expression of αvβ3 and αvβ5 by cells was already evaluated by flow cytometry (Table 2). The stability of each radiolabeled peptide in the culture media before and after cell exposure was assessed.
(§2) Experiments were conducted in suspension at 37 °C. The working conditions were set up to avoid cell damage and/or death. With the use of these information, the cells were pre-incubated in sterile glass tubes at 37 °C for 10 min, in the presence or not of cRGDfK pentapeptide (50 µL; 1.65 mM).
(§3) Then, 1 mL of the cell suspension (1 × 10^6 cells/mL) was incubated with intermittent agitation with 10 µL (10 µCi) of ^99mTc1–3. At 90 min, the cells were moved in Eppendorf microcentrifuge tubes (1.5 mL) and the incubation was interrupted by centrifugation (3000 rpm for 5 min at 10 °C). The supernatant (S1) was separated from the pellet. The cell pellet was treated 10 min at room temperature with saline acetate buffer (CH3COOH 0.2M/NaCl 0.5 M) to remove the membrane-bound compound. After centrifugation (3000 rpm for 10 min at 10 °C), the supernatant (S2) was separated from the pellet (P1), and each fraction was collected, placed in a separated counting tube, and the activity was measured using a NaI counter (Cobra II, Packard) to estimate both the cell uptake and the internalized fraction.
(§4) The uptake of complexes was expressed as percentage cell uptake of the total activity on 10^6 cells (% cell uptake/10^6 cells).
(§5) All assessments were conducted in triplicate for three experiments.

[2] = Cysteine (Cys) and Glutathione (GSH) challenge; type: physicochemical; details: 37 °C, pH 7.4, 24 h; for % RCP in challenge with L-cysteine: excess free L-cysteine (10 mM); for % RCP in challenge with GSH: excess glutathione
Procedure: The inertness of the radioconjugates under conditions relevant for in vivo applications were assessed by evaluating the stability of ^99mTc1–3 in solution and after incubation (37 °C) with transchelating agents (glutathione and L-cysteine, 10–1 mM, pH 7.4).
Cysteine (Cys) and Glutathione (GSH) Challenge. Challenge experiments were carried out with the purified complex using an excess of Cys or GSH. An aliquot (50 µL) of an aqueous stock solution of cysteine hydrochloride (10 mM or 2 mM) was added to a propylene test tube containing PBS (400 µL, pH 7.4) and the relevant [^99mTc(N)(H2NS-cRGDfK)(PNP)]^+ complex (50 µL). The mixture was vortexed and incubated at 37 °C for 24 h. A control reaction containing an equal volume of water, instead of cysteine hydrochloride, was studied in parallel. At 0.5, 1, 3, and 24 h, aliquots of the reaction mixture were withdrawn and analyzed by HPLC chromatography. A similar procedure was applied using GSH (50 µL, 10 mM) as challenger.

[3] = test system: receptor-negative human melanoma M21L cells; assay: Cell uptake and internalization in M21L cells; type: cell-based; details: negative M21L cell line, 37 °C, 90 min
Procedure: as §1, §2, §3, §4, §5

| Substance | cell uptake (sum of surface bound and internalized radioactivity), blocked [1] [% cell uptake/10^6 cells] | cell uptake (sum of surface bound and internalized radioactivity) [1] [% cell uptake/10^6 cells] | specific/nonspecific ratio, internalized radioactivity only [1] | % RCP in challenge with L-cysteine [2] [%] | % RCP in challenge with GSH [2] [%] | cell uptake (sum of surface bound and internalized radioactivity) [3] [% cell uptake/10^6 cells] |
| --- | --- | --- | --- | --- | --- | --- |
| [Tc(N)(H2NS-cRGDfK)(PNP3)]^+ [^99mTc1] | 2.15 ± 0.17 | 2.88 ± 0.09 | 4.5 | > 95 | > 95 | 1.77 ± 0.20 |
| [Tc(N)(H2NS-cRGDfK)(PNP3OH)]^+ [^99mTc3] | 1.41 ± 0.25 | 2.60 ± 0.36 | 4.29 | 27.31 ± 3.6 | 73.33 ± 2.8 | 1.73 ± 0.27 |
| [Tc(N)(H2NS-cRGDfK)(PNP43)]^+ [^99mTc2] | 1.48 ± 0.12 | 2.57 ± 0.42 | 3.28 | > 95 | > 95 | 1.65 ± 0.40 |
